Reference: patent publication US7985415B2, “Medical devices employing novel polymers” (Rutgers, The State University of New Jersey, priority 1997, dated 2011)

System: coronary arteries
Assay: Swine stent model: coated stents implanted in coronary arteries, light microscopy and morphometry
Settings: for Stenosis (%): (Neointimal Area/IEL Area)x100; for EEL Area / IEL Area / Intimal Area / Intimal Thick. / Lumen Area: PolySAID II coating alone or with 20% added drug by weight
Excerpt: A total of 8 stents were implanted in the coronary arteries of 3 miniswine for 28 days. The stent implants were Polymerix [nicknamed MARGI] 15 mm in length with an unexpanded diameter of 1.6 mm.
All stents were processed for light microscopic evaluation. Before processing, the vessels and hearts were x-rayed to locate and assess stent placement. For processing, the stented vessel segments were dehydrated in a graded series of ethanol and embedded in methylmethacrylate plastic. After polymerization, two to three millimeter sections were sawed from the proximal, mid and distal portions of each stent. Sections from the stents were cut on a rotary microtome at four to five microns, mounted and stained with hematoxylin and eosin and elastic Van Gieson stains. All sections were examined by light microscopy for the presence of inflammation, thrombus, neointimal formation, vessel wall injury and potential localized toxic effects associated with drug-coated stents.
Myocardial sections were taken from the anterior, lateral, posterior and septal walls of the left ventricle distal to the stent and from the apical region of the left ventricle. To determine localized affects of the polymer and/or drug, the myocardium was also sampled beneath the area of stent placement. All sections were cut at 4-6 microns; mounted and stained with hematoxylin and eosin and examined for the presence of infarct, thromboembolus and inflammation.
A vessel injury score was calculated according to the Schwartz method. The cross-sectional areas (external elastic lamina [EEL], internal elastic lamina [IEL] and lumen) of each section were measured with digital morphometry. Neointimal thickness was measured as the distance from the inner surface of each stent strut to the luminal border. Percent area stenosis was calculated with the formula [(Neointimal Area/IEL Area)×100]. Ordinal data was also collected for fibrin deposition and inflammation and hemorrhage around the stent struts and percent endothelialization of the lumen surfaces. Values are expressed as mean±SD. Mean variables were compared between the groups with the use of ANOVA with Fishers Post Hoc Correction for analysis of the data. A value of P≦0.05 was considered statistically significant.

[1] = miniswine coronary arteries, stents 28 days

Structure (SMILES) | % Struts (Fibrin) [1] [%] | % Struts Hemorrhage [1] [%] | % Struts with underlying medial necrosis [1] [%] | Ave Inflammation score [1] | light microscopy findings (vessel healing, neointima) [1] | Stenosis (%) [1] [%] | EEL Area [1] [mm2] | IEL Area [1] [mm2] | Intimal Area [1] | Intimal Thick. [1] [mm] | Lumen Area [1] [mm2] | Injury Score (miniswine coronary arteries, stents 28 days, Schwartz method) | light microscopy findings (vessel healing, neointima) (in vivo) | % Struts (Fibrin) (miniswine, in vivo, 28 days) [%] | % Struts Hemorrhage (miniswine, in vivo, 28 days) [%] | % Struts with underlying medial necrosis (miniswine, in vivo, 28 days) [%] | Ave Inflammation score (miniswine, in vivo, 28 days) | Injury Score (miniswine, in vivo, 28 days)
CC(=O)O[C@H]1C(=O)[C@@]2(C)[C@H]([C@H](OC(=O)c3ccccc3)[C@]3(O)C[C@H](OC(=O)[C@H](O)[C@@H](NC(=O)c4ccccc4)c4ccccc4)C(C)=C1C3(C)C)[C@]1(OC(C)=O)CO[C@@H]1C[C@@H]2O [Paclitaxel, paclitaxel] | 100 | 100 | 8.67 ± 3.51 | 2.0 | malapposition with underlying medial necrosis with extensive accumulation of fibrin, hemorrhage, and inflammatory cells around the stent struts | 27.21 ± 17.11 | 8.41 ± 2.95 | 6.84 ± 2.56 | 2.14 ± 2.10 mm2 | 0.05 ± 0.01 | 4.70 ± 0.64 | 0.35 ± 0.48 |  |  |  |  |  | 
CO[C@H]1C[C@@H]2CC[C@@H](C)[C@@](O)(O2)C(=O)C(=O)N2CCCC[C@H]2C(=O)O[C@H]([C@H](C)C[C@@H]2CC[C@@H](O)[C@H](OC)C2)CC(=O)[C@H](C)/C=C(\C)[C@@H](O)[C@@H](OC)C(=O)[C@H](C)C[C@H](C)/C=C/C=C/C=C/1C [Sirolimus, sirolimus] |  |  |  |  |  | 20.31 ± 10.1 | 6.07 ± 0.61 | 4.78 ± 0.39 | 0.96 ± .50 mm2 | 0.10 ± 0.05 | 3.81 ± 0.62 |  | less neointimal growth and were more healed than those coated with paclitaxel | 57.78 ± 43.47 | 28.33 ± 30.14 | 0.68 ± 0.68 | 2.3 ± 0.58 | 0.45 ± 0.69
